# From ChEMBL document CHEMBL1129985, “Cytotoxicity and antiestrogenicity of a novel series of basic diphenylethylenes” (J Med Chem, 1997)
# Experiments:
# [1] = test system: MCF7; test: Cytostaticity against MCF-7 cells in the presence of 1 uMolar E2 (estradiol); format: functional, cell-based; settings: Homo sapiens
# [2] = test system: MCF7; test: Cytotoxicity against MCF-7 cells in the absence of 1 uM E2 (estradiol); format: functional, Homo sapiens
# [3] = test system: MCF7; test: Cytotoxicity against MCF-7 cells in presence of 1 uM E2 (estradiol); format: functional, Homo sapiens
# [4] = molecular target: Estrogen receptor (Homo sapiens, UniProt Q92731+P03372); settings: mvln
# [5] = molecular target: Estrogen receptor (Ovis aries) (UniProt P49885+Q9TU15); test: Relative binding affinity for estrogen receptor in lamb uterus cytosol relative to estradiol; format: protein assay
IC50 [1],IC50 [4],relative binding affinity (RBA) [5],SMILES,Cytotoxicity [2],Cytotoxicity [3]
1.6 µM,3.1 µM,–,CC(C)C=C(c1ccc(OCCN(C(C)C)C(C)C)cc1)c1ccc(OCCN(C(C)C)C(C)C)cc1,3.6 µM,4.5 µM
1.7 µM,1.7 µM,–,CCN(CC)CCOc1ccc(/C(=C/Cc2ccccc2)c2ccc(O)cc2)cc1,2.9 µM,3 µM
1.1 µM,3.2 µM,0.1,CCCCC/C=C(\c1ccc(O)cc1)c1ccc(OCCN(CC)CC)cc1,2.7 µM,3.2 µM
2.4 µM,0.5 µM,–,CCN(CC)CCOc1ccc(/C(=C\C(C)C)c2ccc(O)cc2)cc1,9.2 µM,9.4 µM
1.7 µM,3.5 µM,–,CCCCCCCC/C=C(/c1ccc(O)cc1)c1ccc(OCCN(CC)CC)cc1,5.1 µM,2.9 µM
2.4 µM,1.5 µM,–,CCCCC/C=C(/c1ccc(O)cc1)c1ccc(OCCN(C)C)cc1,8.5 µM,9.3 µM
8 µM,–,–,CC/C(=C(\c1ccccc1)c1ccc(OCCN(C)C)cc1)c1ccccc1 [TAMOXIFEN],9.8 µM,13 µM
8 µM,9.5 µM,–,CCCCCCCCCCCCCC/C=C(\c1ccc(O)cc1)c1ccc(OCCN(CC)CC)cc1,30 µM,30 µM
1.6 µM,0.9 µM,–,CCCCC/C=C(/c1ccc(O)cc1)c1ccc(OCCN(CC)CC)cc1,2.9 µM,3.2 µM
7.9 µM,8 µM,–,CCCCCCCCCCCCCC/C=C(/c1ccc(O)cc1)c1ccc(OCCN(CC)CC)cc1,30 µM,30 µM
1.2 µM,2.5 µM,–,CCCCCC/C=C(\c1ccc(O)cc1)c1ccc(OCCN(CC)CC)cc1,2.8 µM,3.8 µM
1.6 µM,4.7 µM,–,CCCCCCCC/C=C(\c1ccc(O)cc1)c1ccc(OCCN(CC)CC)cc1,3.6 µM,3 µM
1.6 µM,1.5 µM,–,CCCC/C=C(\c1ccc(O)cc1)c1ccc(OCCN(CC)CC)cc1,2.9 µM,3 µM
0.7 µM,6 µM,–,CCCCCC=C(c1ccc(OCCN(CC)CC)cc1)c1ccc(OCCN(CC)CC)cc1,2.7 µM,1.3 µM
1.8 µM,1.3 µM,–,CCN(CC)CCOc1ccc(/C(=C\Cc2ccccc2)c2ccc(O)cc2)cc1,3.2 µM,4.3 µM
1.7 µM,1.7 µM,–,CCN(CC)CCOc1ccc(/C(=C/C(C)C)c2ccc(O)cc2)cc1,8.4 µM,8.8 µM
1.7 µM,1.8 µM,–,CCCCC/C=C(\c1ccc(O)cc1)c1ccc(OCCN(C)C)cc1,2.9 µM,3 µM
1.6 µM,1.9 µM,–,CCCCCC/C=C(/c1ccc(O)cc1)c1ccc(OCCN(CC)CC)cc1,2.9 µM,3 µM
1.6 µM,3.3 µM,–,CCCCC/C=C(\c1ccc(O)cc1)c1ccc(OCCN2CCCC2)cc1,2.9 µM,2.9 µM
1.7 µM,0.5 µM,–,CCCC/C=C(/c1ccc(O)cc1)c1ccc(OCCN(CC)CC)cc1,4.4 µM,5.2 µM
4.2 µM,2.1 µM,–,CC(C)N(CCOc1ccc(C(=C2CCCCC2)c2ccc(OCCN(C(C)C)C(C)C)cc2)cc1)C(C)C,30 µM,8 µM

SMILES,IC50 [1],IC50 [4],relative binding affinity (RBA) [5],Cytotoxicity [2],Cytotoxicity [3]
CC/C(=C(\c1ccc(O)cc1)c1ccc(OCCN(C)C)cc1)c1ccccc1,8 µM,–,–,6 µM,9.4 µM
CCCC/C(CC)=C(/c1ccc(O)cc1)c1ccc(OCCN(CC)CC)cc1.CCCC/C(CC)=C(\c1ccc(O)cc1)c1ccc(OCCN(CC)CC)cc1,1 µM,0.15 µM,–,2.8 µM,2.8 µM
CC(C)N(CCOc1ccc(C(=C2CCCCC2)c2ccc(O)cc2)cc1)C(C)C,1.8 µM,0.2 µM,–,3.8 µM,5 µM
